Assay results from PubChem BioAssay AID2060343 (Molecular Pharmacology Branch, DTP, NCI, 2025).
Several values for one entry are separate records, joined by “and”; a condition that tells them apart may be missing. Equal values may be shown once.

Tested on: 138582-337-R-J1-PDC spheroids with HUVEC/MSC, viability
Experiment: Anticancer human tumor 138582-337-R-J1-PDC patient-derived Merkel cell tumor cell line growth inhibition [IpAb]
Conditions: for viability, T/C: stronger effect = lower value
Description: Combinatorial screen of targeted agents with ipatasertib and abemaciclib in multi-cell type tumor spheroids
A high-throughput screen of multi-cell type tumor spheroids was designed to identify active combinations of targeted small molecules and ipatasertib or abemaciclib. Complex spheroids include a stromal component modeled by human endothelial cells (HUVEC) and fibroblasts modeled by human mesenchymal stem cells (MSCs). The concentration ranges selected for each drug and investigational agent were based upon clinically achievable concentrations if the clinical Cmax of the agent was known.
Compounds. The drugs and investigational agents: ipatasertib (NSC767898), abemaciclib(NSC768073), selumetinib (NSC741078), trametinib (758246), adavosertib (NSC754352), everolimus (NSC733504), sapanisertib (NSC764658), vemurafenib (NSC761431), venetoclax (NSC766270), copanlisib (NSC809693), apelisib (NSC765974), palbociblib (NSC758247), vemurafenib (NSC761431), dabrafenib (NSC764134), ravoxertinib (NSC781343), BMS-387032 (NSC767048), sotorasib (NSC818433), talazoparib (NSC767125) and afursertib (NSC778305), were obtained from the National Cancer Institute (NCI) Developmental Therapeutics Program Chemical Repository. The FDA-approved anticancer drug set is available from the NCI Developmental Therapeutics Program. […] The stock solutions were prepared in dimethyl sulfoxide (DMSO, Sigma-Aldrich, St. Louis, MO, cat. D2650) at 800-fold the tested concentration and stored at -70 degrees C prior to their use. All drugs and investigational agents were tested over a range starting from a high concentration at or near the clinical Cmax and decreasing in half-log increments. If the clinical Cmax for an agent had not been determined, the highest concentration tested was 10 microM.
NCI60 Cell Culture. NCI60 cell lines were obtained from the NCI Developmental Therapeutics Program Tumor Repository. For each lot of cells, the Repository performed Applied Biosystems AmpFLSTR Identifiler testing with PCR amplification to confirm consistency with the published Identifier STR profile for each cell line. Cells were kept in continuous culture for no more than 20 passages. The optimal seeding densities for each of the cell lines at each time point assessed were determined prior to performing the concentration response studies. Briefly, the NCI60 human tumor lines were grown as monolayers in RPMI 1640 medium supplemented with 10% FBS and 2 mmol/L L-glutamine.
An additional 9 lines were from the NCI60 cell line panel including MDA-MB-231 breast carcinoma, MDA-MB-468 breast carcinoma, MCF7 breast carcinoma, Hs578T breast carcinoma, MALME-3M melanoma, SK-MEL-2 melanoma, SK-OV-3 ovarian carcinoma, DU-145 prostate carcinoma, PC-3 prostate carcinoma, all cell lines along with major genetic alterations are listed on Table 2. Pooled donor human umbilical vein endothelial cells (HUVEC, Lonza, cat. CC-2519) and human mesenchymal stem cells (hMSC, Lonza, cat. PT-2501) were purchased from Lonza (Walkersville, MD).
PDMR cell lines were grown in complete medium (DC medium): Dulbecco's modified Eagle's medium (DMEM)/F12 supplemented with 5% fetal bovine serum (FBS), 2 mM L-glutamine, 100 U/mL penicillin and 100 µg/ml streptomycin, 0.4 µg/ml hydrocortisone, 10 ng/ml epidermal growth factor (EGF) recombinant human protein, 24 µg/mL adenine, and 0.1 mg/mL primocin. During culture from frozen stock vials, PDMR cells were cultured in the same medium containing 10 µM Y-27632 (see Table 3). The PDCs were cultured in complete DMEM/F12 media without 10 microM Y-27632 dihydrochloride for at least two passages prior to the screen. The pooled donor HUVEC and hMSC were cultured in endothelial cell growth medium 2 (PromoCell, Heidelberg, Germany, cat. C-22011) and mesenchymal stem cell growth medium 2 (PromoCell, cat. C-28009), respectively. For all experiments, HUVEC and hMSC were used at passages </=5.
[…]

[1] = curve of first compound, second compound 0.1 µM
[2] = curve of first compound, second compound 0.316 µM
[3] = curve of first compound, second compound 1 µM
[4] = second compound 0.1 µM, first compound 0.0316 µM
[5] = second compound 0.1 µM, first compound 0.1 µM
[6] = second compound 0.1 µM, first compound 0.316 µM
[7] = second compound 0.1 µM, first compound 1 µM
[8] = second compound 0.1 µM, first compound 3.16 µM
[9] = second compound 0.1 µM, first compound 10 µM
[10] = second compound 0.316 µM, first compound 0.0316 µM
[11] = second compound 0.316 µM, first compound 0.1 µM
[12] = second compound 0.316 µM, first compound 0.316 µM
[13] = second compound 0.316 µM, first compound 1 µM
[14] = second compound 0.316 µM, first compound 3.16 µM
[15] = second compound 0.316 µM, first compound 10 µM
[16] = second compound 1 µM, first compound 0.0316 µM
[17] = second compound 1 µM, first compound 0.1 µM
[18] = second compound 1 µM, first compound 0.316 µM
[19] = second compound 1 µM, first compound 1 µM
[20] = second compound 1 µM, first compound 3.16 µM
[21] = second compound 1 µM, first compound 10 µM
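Also: spheroids exposed to compounds for seven days.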
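For viability, T/C in this document: 100% = DMSO vehicle control viability.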

CCCS(=O)(=O)Nc1ccc(F)c(C(=O)c2c[nH]c3ncc(-c4ccc(Cl)cc4)cc23)c1F + CCN1CCN(Cc2ccc(Nc3ncc(F)c(-c4cc(F)c5nc(C)n(C(C)C)c5c4)n3)nc2)CC1
IC50 (curve of first compound, second compound 0.01 µM): > 10 µM
IC50 (curve of first compound, second compound 0.0316 µM): > 10 µM
IC50 [1]: 7.49 µM
IC50 [2]: > 10 µM
IC50 [3]: > 10 µM
viability, T/C (second compound 0.01 µM, first compound 0.0316 µM): 99.8%
viability, T/C (second compound 0.01 µM, first compound 0.1 µM): 103%
viability, T/C (second compound 0.01 µM, first compound 0.316 µM): 95.9%
viability, T/C (second compound 0.01 µM, first compound 1 µM): 98.8%
viability, T/C (second compound 0.01 µM, first compound 3.16 µM): 112%
viability, T/C (second compound 0.01 µM, first compound 10 µM): 81.9%
viability, T/C (second compound 0.0316 µM, first compound 0.0316 µM): 97.9%
viability, T/C (second compound 0.0316 µM, first compound 0.1 µM): 96.8%
viability, T/C (second compound 0.0316 µM, first compound 0.316 µM): 96.8%
viability, T/C (second compound 0.0316 µM, first compound 1 µM): 97.2%
viability, T/C (second compound 0.0316 µM, first compound 3.16 µM): 97.8%
viability, T/C (second compound 0.0316 µM, first compound 10 µM): 74.8%
viability, T/C [4]: 93.2%
viability, T/C [5]: 87%
viability, T/C [6]: 93.5%
viability, T/C [7]: 101%
viability, T/C [8]: 93.7%
viability, T/C [9]: 35.4%
viability, T/C [10]: 105%
viability, T/C [11]: 95%
viability, T/C [12]: 106%
viability, T/C [13]: 90.6%
viability, T/C [14]: 103%
viability, T/C [15]: 78.2%
viability, T/C [16]: 99.4%
viability, T/C [17]: 93.8%
viability, T/C [18]: 89.1%
viability, T/C [19]: 86.3%
viability, T/C [20]: 94.1%
viability, T/C [21]: 61.1%

CC(=O)c1c(C)c2cnc(Nc3ccc(N4CCNCC4)cn3)nc2n(C2CCCC2)c1=O
viability, T/C (compound 0.000949 µM): 95.6% and 98.8%
viability, T/C (compound 0.003 µM): 104% and 90.5%
viability, T/C (compound 0.00949 µM): 102% and 101%
viability, T/C (compound 0.03 µM): 93.2% and 87.6%
viability, T/C (compound 0.0949 µM): 94.9% and 92%
viability, T/C (compound 0.3 µM): 100% and 84.8%
IC50 (curve of compound): > 0.3 µM

CC1(C)CCC(CN2CCN(c3ccc(C(=O)NS(=O)(=O)c4ccc(NCC5CCOCC5)c([N+](=O)[O-])c4)c(Oc4cnc5[nH]ccc5c4)c3)CC2)=C(c2ccc(Cl)cc2)C1 + CC(C)NCC(C(=O)N1CCN(c2ncnc3c2C(C)CC3O)CC1)c1ccc(Cl)cc1
IC50 [1]: > 10 µM
IC50 [2]: > 10 µM
IC50 [3]: > 10 µM
IC50 (curve of first compound, second compound 3.16 µM): < 0.0316 µM
IC50 (curve of first compound, second compound 10 µM): < 0.0316 µM
viability, T/C [4]: 83.6%
viability, T/C [5]: 73.6%
viability, T/C [6]: 78.5%
viability, T/C [7]: 75.1%
viability, T/C [8]: 74.5%
viability, T/C [9]: 76.6%
viability, T/C [10]: 73%
viability, T/C [11]: 69.8%
viability, T/C [12]: 67%
viability, T/C [13]: 71.4%
viability, T/C [14]: 63.3%
viability, T/C [15]: 71.2%
viability, T/C [16]: 65.2%
viability, T/C [17]: 63.5%
viability, T/C [18]: 63.8%
viability, T/C [19]: 60.9%
viability, T/C [20]: 60.2%
viability, T/C [21]: 63.8%
viability, T/C (second compound 3.16 µM, first compound 0.0316 µM): 51.2%
viability, T/C (second compound 3.16 µM, first compound 0.1 µM): 50.7%
viability, T/C (second compound 3.16 µM, first compound 0.316 µM): 46.9%
viability, T/C (second compound 3.16 µM, first compound 1 µM): 50.3%
viability, T/C (second compound 3.16 µM, first compound 3.16 µM): 49.6%
viability, T/C (second compound 3.16 µM, first compound 10 µM): 32.3%
viability, T/C (second compound 10 µM, first compound 0.0316 µM): 43.7%
viability, T/C (second compound 10 µM, first compound 0.1 µM): 41.7%
viability, T/C (second compound 10 µM, first compound 0.316 µM): 41.3%
viability, T/C (second compound 10 µM, first compound 1 µM): 38.3%
viability, T/C (second compound 10 µM, first compound 3.16 µM): 47.1%
viability, T/C (second compound 10 µM, first compound 10 µM): 11%

COc1c(OCCCN2CCOCC2)ccc2c3n(c(=NC(=O)c4cnc(N)nc4)nc12)CCN3
viability, T/C (compound 0.00316 µM): 94.9% and 84.9%
viability, T/C (compound 0.01 µM): 71.2% and 75.9%
viability, T/C (compound 0.0316 µM): 53.5% and 58.3%
viability, T/C (compound 0.1 µM): 36.1% and 37.8%
viability, T/C (compound 0.316 µM): 17.5% and 18%
viability, T/C (compound 1 µM): 2.36% and 3.37%
IC50 (curve of compound): 0.039 µM and 0.0512 µM

Cn1ncc(Cl)c1-c1cc(C(=O)NC(CN)Cc2cccc(F)c2)sc1Cl (stereo unspecified)
viability, T/C (compound 0.0316 µM): 89.5% and 99.6%
viability, T/C (compound 0.1 µM): 80.9% and 77%
viability, T/C (compound 0.316 µM): 86.6% and 67.6%
viability, T/C (compound 1 µM): 72.8% and 61.9%
viability, T/C (compound 3.16 µM): 66.4% and 46%
viability, T/C (compound 10 µM): 0.28% and 0.56%
IC50 (curve of compound): 4.05 µM and 1.72 µM
